# Experimental data: patent US20230406850A1, “CRYSTALLINE FORM OF HETEROCYCLIC COMPOUND, PREPARATION METHOD THEREFOR AND APPLICATION THEREOF” (WUHAN LL SCIENCE AND TECHNOLOGY DEVELOPMENT CO., LTD., priority 2020, published 2023)
# Like-named read-outs stand apart in the source and are kept apart here.
# Tests used:
# [1] = Solid form change on dehydration, drying or ambient humidity (XRPD); format: physicochemical
# Source text: Combined with DSC and TGA pattern, it can be seen that the product is hydrate with about 0.34 water molecules.
# [2] = Dynamic vapor sorption (DVS) hygroscopicity; format: physicochemical
# Experimental: The solid was analyzed by DVS using IGA sorp dynamic vapor sorption instrument. • Temperature: 25° C. • Gas flow: 250 mL/min. • Scan cycle: 2. • Minimum test time: 30 min. • Maximum test time: 2 hours. • Waiting for balance: 98%.
# [3] = Water activity experiment (slurry in acetone/water); format: physicochemical; conditions: three days
# Experimental: Water activity experiment was carried out. Crystalline forms I and V ([…]) were slurried in a mixed solvent in acetone/water with different water contents at room temperature and 60° C. for three days, and after three days, solid sample was filtered to test XRPD, and the experimental results are as shown in Table 4.
# [4] = Competitive slurrying experiment of crystalline forms I and V; format: physicochemical; conditions: acetone, ethanol, room temperature and 60° C., three days
# Experimental: Competitive slurrying experiment was carried out: the same amount of crystalline forms I and V were weighed and mixed evenly, then XRPD was tested, and the results were used as T0 of competitive slurrying experiment. The mixture was slurried in acetone, ethanol and water at room temperature and 60° C. Three days later, solid samples were obtained by filtration, and. XRPD was tested.
# [5] = Solid-state crystal transformation between crystalline forms I and V; format: physicochemical; conditions: mixture of forms I and V, oven at 60° C. and room temperature dryer, one week
# [6] = Physical and chemical stability (stability boxes, XRPD and HPLC); format: physicochemical; conditions: for Purity -7 days (peak area %) / XRPD: 7 days
# Experimental: About 10 mg of crystalline forms I, III and V were placed in the stability boxes at 40° C./75% RH (open) and 60° C. (covered) for seven days, and some samples were taken out for XRPD and HPLC tests at 0 and 7 days, respectively, to investigate their physical and chemical stability.
# [7] = Solubility in biological media SGF, FaSSIF and FeSSIF; format: physicochemical; conditions: for solubility at 0.5 h / solubility at 2 h / Solubility: 37° C.
# Experimental: Compared with other crystalline forms, crystalline forms I, III and V show good solid properties, so their solubility was tested respectively.
# 10 mg of the sample was weighed, and then 2.0 mL of biological media buffer (i.e. the target concentration is 5 mg/mL) was added to form a suspension. The mixture was put in a constant temperature water bath shaker (37° C., 100 rpm), and sampled 500 μL at 0.5, 2 and 24 hours respectively. After filtration, the pH value and HPLC concentration of filtrate were tested respectively, and the solid sample obtained by filtration was tested by XRPD.
# [8] = Pharmacokinetics, crystalline form I versus crystalline form V; format: in vivo, Beagle dog; conditions: 10 mg/kg po, fasting, male dogs, 0.5% CMC-Na suspension, plasma
# Experimental: Beagle dog (general grade, Beijing Masi Biotechnology Co., Ltd.) was given compound A by single oral gavage to study the pharmacokinetics of the compound in plasma. The test drug (100 mg/kg dosage, 5 mL/kg administration volume) was given by gavage, and samples were collected at 10 minutes, 30 minutes, 1 hour, 2 hours, 4 hours, 6 hours, 8 hours, 10 hours, 24 hours and 48 hours after administration: peripheral venipuncture was performed, and about 1.0 mL whole blood was collected from each animal at every time point, and blood samples were collected. Within 60 minutes after blood collection, 0.2 mL of whole blood was separated into a cryopreservation tube, and deionized water was added at a ratio of 1:1, which was mixed upside down and then frozen. The remaining samples were centrifuged at 2,000 g at 2 to 8° C. for 10 min to obtain plasma samples, and the hemolysis of each sample was recorded, and the influence on detection was evaluated, and then the color of plasma was observed and recorded on the blood collection table (“−” means no hemolysis, “+” means pink supernatant and “++” means red supernatant).
# The concentration of compound A in plasma was determined by LC-MS/MS method (Non-GLP). The pharmacokinetic parameters were calculated by WinNonlin (Phoenix™, version 8.1) or other similar software. If applicable plasma drug concentration-time data are available, the following pharmacokinetic parameters are calculated: CL (clearance), Vss (steady-state apparent volume of distribution), T1/2 (elimination half-life), Cmax (peak concentration), Tmax (peak time), AUC (area under the concentration-time curve), MRT (mean residence time). Pharmacokinetic data were described by descriptive statistics, such as mean, standard deviation and sample size.
# Comparison of crystalline form and crystalline form V is the same for 3 dogs (male), 10 mg/kg po, fasting, 0.5% CMC-Na stirring for 3 hours, and then administration (suspension), and the data obtained are as shown in Table 7.
# [9] = system: Dunkin Hartley guinea pigs, ATP-citric acid induced cough; assay: ATP-citric acid cough model; format: in vivo, guinea pig
# Experimental: Male Dunkin Hartley guinea pigs (300-400 g) were placed in a whole-body volume scanning box for 3 to 5 minutes, and then subjected to ATP atomization for 2 minutes, with an interval of 3 minutes, followed by citric acid atomization for 5 minutes, and all atomization rates were about 300 μL/min. From citrate acid atomization, cough times and cough latency of animals within 10 min were recorded. During the 10-minute observation period, manual counting of coughs was required, and the number of coughs was judged according to the guinea pig's coughing posture, such as abdominal twitching, mouth opening, head down hooking, etc., as well as the sound of coughing, the number of coughs in the first 10 minutes were recorded, and the cough incubation period of guinea pigs was also recorded.
# Animals were divided into vehicle group, dextromethorphan (63 mg/kg) positive group, AF-219 (30 mg/kg) positive group and compound 172 (3, 10, 30 mg/kg) administration group of Embodiment. All compounds were administered orally, except dextromethorphan, which was administered 40 minutes before ATP-citric acid exposure, and the rest compounds were […].
# [10] = 63 mg/kg oral, 40 minutes before ATP-citric acid exposure
smiles,measurement,setting,value
"COC(=O)N1CCO[C@@H](Cc2c(-c3c(F)cc(S(N)(=O)=O)cc3F)nc3cc(Cl)ccn23)C1 [Crystalline form IV, methyl (S)-2-((7-chloro-2-(2,6-difluoro-4-sulfamoylphenyl)imidazo[1,2-a]pyridin-3-yl)methyl)morpholine-4-carboxylate]",crystalline form after dehydration,"[1]; heating to dehydration, then ambient humidity",becomes crystalline form I again
"COC(=O)N1CCO[C@@H](Cc2c(-c3c(F)cc(S(N)(=O)=O)cc3F)nc3cc(Cl)ccn23)C1 [Crystalline form V, methyl (S)-2-((7-chloro-2-(2,6-difluoro-4-sulfamoylphenyl)imidazo[1,2-a]pyridin-3-yl)methyl)morpholine-4-carboxylate]",XRPD before and after the DVS test,[2],no obvious change in the XRPD
same,hygroscopicity (DVS),"[2]; 80% RH, 25° C.",0.7%
same,The experimental results (crystalline form),"[3]; water content 10%, 60° C.",Crystalline form VI
same,The experimental results (crystalline form),"[3]; water content 10%, RT",Crystalline form I
same,The experimental results (crystalline form),"[3]; water content 50%, 60° C.",Crystalline form IV
same,The experimental results (crystalline form),"[3]; water content 50%, RT",Crystalline form IV
same,The experimental results (crystalline form),"[3]; water content 90%, 60° C.",Crystalline form IV
same,The experimental results (crystalline form),"[3]; water content 90%, RT",Crystalline form IV
same,relative stability inferred from competitive slurrying and water activity tests,[4],stable at high temperature (60° C.) in water
same,mutual crystal transformation in solid state,[5],no mutual crystal transformation trend
same,Initial purity (Peak area %),[6]; 0 days,99.29 peak area %
same,Purity -7 days (peak area %),[6]; 40° C./75% RH (open),99.28 peak area %
same,XRPD,[6]; 40° C./75% RH (open),Constant
same,stability conclusion in words,"[6]; 40° C./75% RH and 60° C., seven days",good physical and chemical stability
same,Purity -7 days (peak area %),[6]; 60° C. (covered),99.30 peak area %
same,XRPD,[6]; 60° C. (covered),Constant
same,solubility at 0.5 h,"[7]; FaSSIF, 37 °C, fassif, thermodynamic from solid, FaSSIF, 0.5 h, read-out: Solubility",30 µg/mL
same,solubility at 2 h,"[7]; FaSSIF, 37 °C, fassif, thermodynamic from solid, FaSSIF, 2 h, read-out: Solubility",34 µg/mL
same,solubility at 24 h,"[7]; FaSSIF, 37 °C, thermodynamic from solid, 24 h",45 µg/mL
same,XRPD of remaining solid,"[7]; FaSSIF, 0.5 h",Unchanged
same,pH of filtrate,"[7]; FaSSIF, 0.5 h",6.4
same,XRPD of remaining solid,"[7]; FaSSIF, 2 h",Unchanged
same,pH of filtrate,"[7]; FaSSIF, 2 h",6.4
same,XRPD of remaining solid,"[7]; FaSSIF, 24 h",Unchanged
same,pH of filtrate,"[7]; FaSSIF, 24 h",6.4
same,XRPD of remaining solid,"[7]; FeSSIF, 0.5 h",Unchanged
same,pH of filtrate,"[7]; FeSSIF, 0.5 h",5.0
same,Solubility,"[7]; FeSSIF, 0.5 h",91 µg/mL
same,XRPD of remaining solid,"[7]; FeSSIF, 2 h",Unchanged
same,pH of filtrate,"[7]; FeSSIF, 2 h",5.0
same,Solubility,"[7]; FeSSIF, 2 h",93 µg/mL
same,XRPD of remaining solid,"[7]; FeSSIF, 24 h",Unchanged
same,pH of filtrate,"[7]; FeSSIF, 24 h",5.1
same,Solubility,"[7]; FeSSIF, 24 h",121 µg/mL
same,solubility at 0.5 h,"[7]; SGF, 37 °C, simulated gastric fluid, thermodynamic from solid, SGF, 0.5 h, read-out: Solubility",4330 µg/mL
same,solubility at 2 h,"[7]; SGF, 37 °C, simulated gastric fluid, thermodynamic from solid, SGF, 2 h, read-out: Solubility (visual observation)",> 5000 µg/mL
same,pH of filtrate,"[7]; SGF, 0.5 h",1.2
same,pH of filtrate,"[7]; SGF, 2 h",1.1
same,pH of filtrate,"[7]; SGF, 24 h",1.2
same,AUClast,[8],2637.43 ng·h/mL
same,Cmax,[8],170.43 ng/mL
same,F,[8],11.7%
same,MRTlast,[8],10.39 h
same,T1/2,[8],44.35 h
same,Tmax,[8],4.67 h
"COC(=O)N1CCO[C@@H](Cc2c(-c3c(F)cc(S(N)(=O)=O)cc3F)nc3cc(Cl)ccn23)C1 [Crystalline form VI, methyl (S)-2-((7-chloro-2-(2,6-difluoro-4-sulfamoylphenyl)imidazo[1,2-a]pyridin-3-yl)methyl)morpholine-4-carboxylate]",crystalline form after being placed under ambient humidity,"[1]; 35% RH, a few minutes",transforms into crystalline form I
"COC(=O)N1CCO[C@@H](Cc2c(-c3c(F)cc(S(N)(=O)=O)cc3F)nc3cc(Cl)ccn23)C1 [Crystalline form VIII, methyl (S)-2-((7-chloro-2-(2,6-difluoro-4-sulfamoylphenyl)imidazo[1,2-a]pyridin-3-yl)methyl)morpholine-4-carboxylate]",crystalline form after desolvation by vacuum drying,[1]; vacuum drying at 40° C. for 3 hours,transformed into crystalline form I
"COc1ccc2c(c1)[C@]13CCCC[C@@H]1[C@H](C2)N(C)CC3 [Dextromethorphan, dextromethorphan, reference compound]",Cough suppression rate vs Vehicle,[9]; [10],61.60%
same,Coughing times in 10 min,[9]; [10],8.00
same,"effect on number of coughs compared with the vehicle group, in words","[9]; guinea pig, in vivo",significantly reduce the number of coughs
